Data reported in patent US8192962B2, “Processes for detecting toxic substances” (Daikin Industries, Ltd., priority 2001, dated 2012).

System: Unknown protein yeast genes
Experiment: DNA chip mRNA expression in yeast, unknown protein yeast genes (Table 1)
Type: cell-based, Saccharomyces cerevisiae S288C
Summary of the method: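 S. cerevisiae S288C grown at 25° C. in YPD to log phase, then exposed 2 h to a toxicant at a growth-inhibiting, non-lethal concentration; untreated cells as control. Poly(A) mRNA reverse-transcribed with Cy3-dUTP or Cy5-dUTP, hybridized >12 h at 65° C. to whole-genome yeast DNA chip; value = fluorescence ratio treated/untreated.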

Measured: The level of expressed mRNA in the presence of chemical substance/The level of expressed mRNA in the absence of chemical substance

manganese ethylenebis(dithiocarbamate) [(8)]
1.9: yeast gene YBL107C
0.7: yeast gene YDL222C, incubated two hours with chemical substance | yeast gene YGL199C, incubated two hours with chemical substance | yeast gene YIL023C, incubated two hours with chemical substance | yeast gene YJL152W, incubated two hours with chemical substance | yeast gene YKL153W, incubated two hours with chemical substance
0.4: yeast gene YFL032W, incubated two hours with chemical substance
0.9: yeast gene YDR411C, incubated two hours with chemical substance | yeast gene YER158C, incubated two hours with chemical substance | yeast gene YFL024C | yeast gene YGR130C, incubated two hours with chemical substance | yeast gene YIL041W, incubated two hours with chemical substance | yeast gene YJL082W, incubated two hours with chemical substance | yeast gene YJL171C, incubated two hours with chemical substance
1.2: yeast gene YBL048W | yeast gene YEL001C, incubated two hours with chemical substance | yeast gene YER035W, incubated two hours with chemical substance | yeast gene YER106W, incubated two hours with chemical substance | yeast gene YGL037C, incubated two hours with chemical substance | yeast gene YGL053W, incubated two hours with chemical substance
1.4: yeast gene YER079W, incubated two hours with chemical substance | yeast gene YER163C, incubated two hours with chemical substance | yeast gene YHR138C, incubated two hours with chemical substance | yeast gene YJL161W, incubated two hours with chemical substance
0.8: yeast gene YAL053W, incubated two hours with chemical substance | yeast gene YDL072C, incubated two hours with chemical substance | yeast gene YGR101W, incubated two hours with chemical substance | yeast gene YJL066C, incubated two hours with chemical substance | yeast gene YJL151C, incubated two hours with chemical substance
1.7: yeast gene YDR511W, incubated two hours with chemical substance | yeast gene YGR154C, incubated two hours with chemical substance
1.5: yeast gene YGR110W | yeast gene YJL057C, incubated two hours with chemical substance
24.7: yeast gene YKL071W
1.6: yeast gene YJR054W, incubated two hours with chemical substance
1.1: yeast gene YDL204W, incubated two hours with chemical substance | yeast gene YDR330W, incubated two hours with chemical substance | yeast gene YER004W, incubated two hours with chemical substance | yeast gene YER175C, incubated two hours with chemical substance | yeast gene YGL047W, incubated two hours with chemical substance | yeast gene YGR221C, incubated two hours with chemical substance | yeast gene YIL087C, incubated two hours with chemical substance | yeast gene YJR008W, incubated two hours with chemical substance | yeast gene YKL086W, incubated two hours with chemical substance
1.0: yeast gene YFL006W, incubated two hours with chemical substance | yeast gene YFL010C, incubated two hours with chemical substance | yeast gene YHR199C, incubated two hours with chemical substance | yeast gene YKL151C, incubated two hours with chemical substance
0.6: yeast gene YDR545W, incubated two hours with chemical substance
3.0: yeast gene YGL121C
